Source: US20240247080A1, “GLP1/GIP/NPY2 RECEPTOR TRIPLE AGONISTS” (Boehringer Ingelheim International GmbH, priority 2022, published 2024)
Read-outs that look alike come from different tables or passages of the source.

Experiments:
Format in all cases: cell-based
Conditions in all cases: CreLuc reporter gene assay
[1] = target: T1, hGIPR (Homo sapiens, UniProt P48546); assay: hGIPR CreLuc reporter gene assay in 0.5% and 100% plasma
T1 construct: expressed in transfected cells; host or cells: CHO cells carrying a CRE-luciferase reporter gene
T1 sequence (P48546 22-466): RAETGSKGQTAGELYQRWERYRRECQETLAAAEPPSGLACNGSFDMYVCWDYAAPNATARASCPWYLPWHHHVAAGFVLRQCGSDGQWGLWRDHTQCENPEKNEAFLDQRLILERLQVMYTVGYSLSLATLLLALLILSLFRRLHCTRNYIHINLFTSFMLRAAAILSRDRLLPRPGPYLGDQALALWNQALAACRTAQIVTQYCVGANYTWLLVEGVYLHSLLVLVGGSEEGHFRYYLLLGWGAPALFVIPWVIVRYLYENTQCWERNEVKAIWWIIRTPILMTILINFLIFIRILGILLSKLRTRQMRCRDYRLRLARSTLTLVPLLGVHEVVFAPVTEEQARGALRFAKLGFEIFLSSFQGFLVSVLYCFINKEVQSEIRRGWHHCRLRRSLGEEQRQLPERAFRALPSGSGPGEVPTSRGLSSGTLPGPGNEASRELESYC
Outline: (§1)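 Agonist EC50s came from 8-concentration curves over four decades, fitted by non-linear variable-slope regression of CRE-driven luciferase luminescence. Cells were exposed 4 h at 37 °C, in buffer with 0.5% human plasma or in 100% plasma; GIPR was expressed in CHO cells, GLP-1R and NPY2R in HEK cells.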

[2] = target: T2, hNPY2R (Homo sapiens, UniProt P49146); assay: hNPY2R CreLuc reporter gene assay in 0.5% and 100% plasma
T2 construct: expressed in transfected cells; host or cells: HEK-293 cells carrying a CRE-luciferase reporter gene
T2 sequence (P49146 1-381): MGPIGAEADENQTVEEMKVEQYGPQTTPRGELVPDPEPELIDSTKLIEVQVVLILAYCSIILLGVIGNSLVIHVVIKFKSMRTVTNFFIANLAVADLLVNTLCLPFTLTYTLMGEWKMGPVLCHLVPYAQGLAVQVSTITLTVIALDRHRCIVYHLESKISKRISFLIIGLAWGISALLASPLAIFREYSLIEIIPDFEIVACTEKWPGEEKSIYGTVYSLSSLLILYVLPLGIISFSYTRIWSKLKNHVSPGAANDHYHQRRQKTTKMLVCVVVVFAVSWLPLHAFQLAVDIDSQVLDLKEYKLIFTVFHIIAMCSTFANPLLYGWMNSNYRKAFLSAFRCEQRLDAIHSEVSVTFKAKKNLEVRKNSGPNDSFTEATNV
From the text: Example 1: hGLPR/hGIPR/hNPY2R CreLuc Assay in 0.5% and 100% Plasma
CHO and HEK-293 recombinant cell lines express a luciferase reporter gene under control of the cAMP responsive element (CRE). As a second recombinant protein the GLP-1 and NPY2 receptors were expressed in the reporter gene HEK cells, and the GIP receptor was expressed in the reporter gene CHO cells, respectively. Stimulation of these recombinant cells with an agonist leads to an increase of intracellular cAMP levels. In the presence of cAMP, the transcription factor CRE binding protein (CREB) binds to the CRE and to the CREB binding protein (CBP), which leads to transcription of the luciferase reporter gene. Peptides upon serial-dilution in 100% DMSO were transferred into 384-well assay plates with 5 μl pre-dispensed assay buffer (1×HBSS, 20 mM HEPES, pH7.4 supplemented with 0.5% human plasma) using acoustic dispensing on a Labcyte ECHO. Cryo-preserved transgenic reporter gene cells were thawed in assay buffer. 20 μl (10.000 cells/well) were added to the plate with the peptides and incubated for 4 hours at 37° C. in a humidified incubator. Following incubation, assay plates are equilibrated to room temperature, followed by addition of 25 μl of Bright-GIo™ Luciferase reagent, incubation at room temperature for 10 minutes and analysis of luminescence (Envision Reader). Concentration response evaluation of compounds was performed with 8 concentrations of peptides (covering four decades). EC50 values were calculated by non-linear regression using sigmoid concentration-response with variable slope. The same assays were run in the presence of 100% plasma with no additional buffer constituents.

[3] = target: T3, hGLP1R (Homo sapiens, UniProt P43220); assay: hGLP1R CreLuc reporter gene assay in 0.5% and 100% plasma
T3 construct: expressed in transfected cells; host or cells: HEK-293 cells carrying a CRE-luciferase reporter gene
Outline: as §1

[4] = 0.5% human plasma, read-out: hGIPR 0.5% hP
[5] = 100% human plasma, read-out: hGIPR 100% hP
[6] = 0.5% human plasma, read-out: hNPY2R 0.5% hP
[7] = 100% human plasma, read-out: hNPY2R 100% hP
[8] = 0.5% human plasma, read-out: hGLP1R 0.5% hP

T3 sequence (P43220 24-463): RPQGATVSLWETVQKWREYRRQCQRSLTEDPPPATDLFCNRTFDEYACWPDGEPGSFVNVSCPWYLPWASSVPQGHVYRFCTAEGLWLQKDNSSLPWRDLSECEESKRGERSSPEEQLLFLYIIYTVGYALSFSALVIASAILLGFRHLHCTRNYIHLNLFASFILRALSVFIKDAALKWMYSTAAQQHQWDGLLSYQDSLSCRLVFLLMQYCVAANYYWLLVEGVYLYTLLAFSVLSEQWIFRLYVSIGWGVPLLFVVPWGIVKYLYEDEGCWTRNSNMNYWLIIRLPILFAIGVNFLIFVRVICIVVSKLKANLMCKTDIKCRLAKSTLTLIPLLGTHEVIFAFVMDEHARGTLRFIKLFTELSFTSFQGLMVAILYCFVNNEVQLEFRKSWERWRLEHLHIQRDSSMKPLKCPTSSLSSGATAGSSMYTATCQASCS

Structure (SMILES) | EC50 [1, 4] | EC50 [1, 5] | EC50 [2, 6] | EC50 [2, 7] | EC50 [3, 8] | EC50 ([3]; 100% human plasma, read-out: hGLP1R 100% hP)
CC[C@H](C)[C@H](NC(=O)[C@H](CC(C)C)NC(=O)[C@H](Cc1c[nH]c2ccccc12)NC(=O)[C@H](CCC(=O)O)NC(=O)[C@@H](NC(=O)[C@H](Cc1ccccc1)NC(=O)[C@H](C)NC(=O)C(C)(C)NC(=O)[C@H](CCC(N)=O)NC(=O)[C@H](C)NC(=O)[C@H](CCC(N)=O)NC(=O)[C@H](CCCCN)NC(=O)[C@H](CCC(=O)O)NC(=O)[C@H](CC(C)C)NC(=O)C(C)(C)NC(=O)[C@@H](NC(=O)[C@H](CO)NC(=O)[C@H](Cc1ccc(O)cc1)NC(=O)[C@H](CC(=O)O)NC(=O)[C@H](CO)NC(=O)[C@@H](NC(=O)[C@H](Cc1ccccc1)NC(=O)[C@@H](NC(=O)CNC(=O)[C@H](CCC(=O)O)NC(=O)C(C)(C)NC(=O)[C@@H](N)Cc1ccc(O)cc1)[C@@H](C)O)[C@@H](C)O)[C@@H](C)CC)C(C)C)C(=O)N[C@@H](CCCCNC(=O)[C@@H](N)CCCCNC(=O)CC[C@H](NC(=O)CC[C@H](NC(=O)CC[C@H](NC(=O)CC[C@H](NC(=O)CC[C@H](NC(=O)CC[C@H](NC(=O)CCCCCCCCCCCCCCCCCCC(=O)O)C(=O)O)C(=O)O)C(=O)O)C(=O)O)C(=O)O)C(=O)O)C(=O)NCC(=O)NCC(=O)N1CCC[C@H]1C(=O)N[C@@H](CO)C(=O)N[C@@H](CO)C(=O)NCC(=O)N[C@@H](C)C(=O)N[C@@H](CO)C(=O)N[C@@H](CC(C)C)C(=O)N[C@@H](CCCNC(=N)N)C(=O)N[C@H](Cc1c[nH]cn1)C(=O)N[C@@H](Cc1ccc(O)cc1)C(=O)N[C@@H](Cc1ccc(O)cc1)C(=O)N[C@@H](CC(N)=O)C(=O)N[C@@H](Cc1c[nH]c2ccccc12)C(=O)N[C@@H](CC(C)C)C(=O)N[C@H](C(=O)N[C@H](CCCNC(=N)N)C(=O)N[C@@H](CCC(N)=O)C(=O)N[C@@H](CCCNC(=N)N)C(=O)N[C@H](Cc1ccc(O)cc1)C(N)=O)[C@@H](C)O [Compound 21, Y-Aib-E-G-T-F-T-S-D-Y-S-I-Aib-L-E-K-Q-A-Q-Aib-A-F-V-E-W-L-I-K(1,3)-G-G-P-S-S-G-A-S-L-R-DHis-Y-Y-N-W-L-T-DArg-Q-R-DTyr-NH2.C20DA-gGlu-gGlu-gGlu-gGlu-gGlu-gGlu-eLys(1,2)] | 0.14 nM | 0.87 nM | > 99.9 nM | > 999 nM | 0.11 nM | 1.66 nM
CC[C@H](C)[C@H](NC(=O)[C@H](CC(C)C)NC(=O)[C@H](Cc1c[nH]c2ccccc12)NC(=O)[C@H](CCC(N)=O)NC(=O)[C@@H](NC(=O)[C@H](Cc1ccccc1)NC(=O)[C@H](C)NC(=O)C(C)(C)NC(=O)[C@H](CCC(N)=O)NC(=O)[C@H](C)NC(=O)[C@H](CCC(N)=O)NC(=O)[C@H](CCC(=O)O)NC(=O)[C@H](CCC(=O)O)NC(=O)[C@H](CC(C)C)NC(=O)C(C)(C)NC(=O)[C@@H](NC(=O)[C@H](CO)NC(=O)[C@H](Cc1ccc(O)cc1)NC(=O)[C@H](CC(=O)O)NC(=O)[C@H](CO)NC(=O)[C@@H](NC(=O)[C@H](Cc1ccccc1)NC(=O)[C@@H](NC(=O)CNC(=O)[C@H](CCC(=O)O)NC(=O)C(C)(C)NC(=O)[C@@H](N)Cc1ccc(O)cc1)[C@@H](C)O)[C@@H](C)O)[C@@H](C)CC)C(C)C)C(=O)N[C@@H](CCCCNC(=O)[C@@H](N)CCCCNC(=O)CC[C@H](NC(=O)CC[C@H](NC(=O)CC[C@H](NC(=O)[C@H](CCC(=O)O)NC(=O)CC[C@H](NC(=O)CC[C@H](NC(=O)CCCCCCCCCCCCCCCCCCC(=O)O)C(=O)O)C(=O)O)C(=O)O)C(=O)O)C(=O)O)C(=O)NCC(=O)NCC(=O)N1CCC[C@H]1C(=O)N[C@@H](CO)C(=O)N[C@@H](CO)C(=O)NCC(=O)N[C@@H](C)C(=O)N[C@@H](CO)C(=O)N[C@@H](CC(C)C)C(=O)N[C@@H](CCCNC(=N)N)C(=O)N[C@@H](Cc1c[nH]cn1)C(=O)N[C@@H](Cc1ccc(O)cc1)C(=O)N[C@@H](Cc1ccc(O)cc1)C(=O)N[C@@H](CC(N)=O)C(=O)N[C@@H](Cc1c[nH]c2ccccc12)C(=O)N[C@@H](CC(C)C)C(=O)N[C@H](C(=O)N[C@@H](CCCNC(=N)N)C(=O)N[C@@H](CCC(N)=O)C(=O)N[C@@H](CCCNC(=N)N)C(=O)N[C@@H](Cc1ccc(O)cc1)C(N)=O)[C@@H](C)O [Compound 30, Y-Aib-E-G-T-F-T-S-D-Y-S-I-Aib-L-E-E-Q-A-Q-Aib-A-F-V-Q-W-L-I-K(1,3)-GGPSSGASLRHYYNWLTRQRY-NH2.C20DA-gGlu-gGlu-Glu-gGlu-gGlu-gGlu-eLys(1,2)] | 0.13 nM | 1.06 nM | 13.3 nM | 56.3 nM | 0.08 nM | 
CC[C@H](C)[C@H](NC(=O)[C@H](CC(C)C)NC(=O)[C@H](Cc1c[nH]c2ccccc12)NC(=O)[C@H](CCC(=O)O)NC(=O)[C@@H](NC(=O)[C@H](Cc1ccccc1)NC(=O)[C@H](C)NC(=O)C(C)(C)NC(=O)[C@H](CCC(N)=O)NC(=O)[C@H](C)NC(=O)[C@H](CCC(N)=O)NC(=O)[C@H](CCCCN)NC(=O)[C@H](CCC(=O)O)NC(=O)[C@H](CC(C)C)NC(=O)C(C)(C)NC(=O)[C@@H](NC(=O)[C@H](CO)NC(=O)[C@H](Cc1ccc(O)cc1)NC(=O)[C@H](CC(=O)O)NC(=O)[C@H](CO)NC(=O)[C@@H](NC(=O)[C@H](Cc1ccccc1)NC(=O)[C@@H](NC(=O)CNC(=O)[C@H](CCC(=O)O)NC(=O)C(C)(C)NC(=O)[C@@H](N)Cc1ccc(O)cc1)[C@@H](C)O)[C@@H](C)O)[C@@H](C)CC)C(C)C)C(=O)N[C@@H](CCCCNC(=O)[C@@H](N)CCCCNC(=O)CC[C@H](NC(=O)CC[C@H](NC(=O)CC[C@H](NC(=O)CC[C@H](NC(=O)CC[C@H](NC(=O)CC[C@H](NC(=O)CCCCCCCCCCCCCCCCCCC(=O)O)C(=O)O)C(=O)O)C(=O)O)C(=O)O)C(=O)O)C(=O)O)C(=O)NCC(=O)NCC(=O)N1CCC[C@H]1C(=O)N[C@@H](CO)C(=O)N[C@@H](CO)C(=O)NCC(=O)N[C@@H](CCC(N)=O)C(=O)N[C@@H](CO)C(=O)N[C@@H](CC(C)C)C(=O)N[C@@H](CCCNC(=N)N)C(=O)N[C@@H](Cc1c[nH]cn1)C(=O)N[C@@H](Cc1ccc(O)cc1)C(=O)N[C@@H](Cc1ccc(O)cc1)C(=O)N[C@@H](CC(N)=O)C(=O)N[C@@H](Cc1c[nH]c2ccccc12)C(=O)N[C@@H](CC(C)C)C(=O)N[C@H](C(=O)N[C@@H](CCCNC(=N)N)C(=O)N[C@@H](CCC(N)=O)C(=O)N[C@@H](CCCNC(=N)N)C(=O)N[C@@H](Cc1ccc(O)cc1)C(N)=O)[C@@H](C)O [Compound 84, Y-Aib-E-G-T-F-T-S-D-Y-S-I-Aib-L-E-K-Q-A-Q-Aib-A-F-V-E-W-L-I-K(1,3)-GGPSSGQSLRHYYNWLTRQRY-NH2.C20DA-gGlu-gGlu-gGlu-gGlu-gGlu-gGlu-eLys(1,2)] | 0.23 nM | 1.43 nM |  | 35.2 nM | 0.13 nM | 
